Results from PMC10525924, “Engineering and Purification of Microcin C7 Variants Resistant to Trypsin and Analysis of Their Biological Activity” (Antibiotics, 2023).
Converted amounts (≈) assume the structure as drawn. Where a SMILES comes first, the peptide text is derived from it.

What was measured:
Yej^+rimL^− strain [1] = experiment: organism not typed; assay type: cell-based; conditions: agar diffusion; for bacteriostatic activity after trypsin treatment, Yej^+rimL^− / Diameters of the inhibition zones, Trypsin-Treated Group, Yej^+rimL^−: supernatant treated with trypsin 50 μg/mL, 37 °C, 3 h; for Diameters of the inhibition zones, Trypsin-Untreated Group, Yej^+rimL^−: 200 μL fermentation supernatant, 1 × 10^5 CFU/mL, 4 °C 1 h then 37 °C 24 h, chloramphenicol 100 μL of 0.25 μg/mL; for Diameters of the inhibition zones, Trypsin-Untreated Group, Yej^+rimL^− / Diameters of the inhibition zones, Trypsin-Treated Group, Yej^+rimL^−: dash = no zone; for Diameters of the inhibition zones, Trypsin-Treated Group, Yej^+rimL^−: pH 6.8, 37 °C 24 h
From the text: To analyze the antimicrobial ability of the variants, we measured the inhibition zones of all 21 variants by the agar diffusion method. The peptide moiety of McC was recognized by a YejABEf-peptide transporter. The rimL contains an acetyltransferase domain homologous to MccE which can detoxify and provide resistance to McC [17]. The overexpression of the YejABEF gene cluster and rimL gene knockout made the strain hypersensitive to McC. Therefore, the Yej^+rimL^− strain was selected as the sensitive indicator bacterial strain.
(§1) The pH was adjusted to 6.8.
(§2) The fermentation supernatants and pure products were used to characterize the bacteriostatic effects of McC variants by the agar diffusion and microdilution methods. Yej^+rimL^− and E. coli K88 indicator bacteria were applied. The serotype of E. coli K88 was O149:K91, K88ac, a clinically isolated strain, and provided by the College of Veterinary Medicine, China Agricultural University. The indicated bacteria were diluted to 1 × 10^5 CFU/mL and added to plate medium cooled to 50 °C. Two hundred microliters of supernatants were added to each dish, and diffusion was performed at 4 °C for 1 h. After incubation at 37 °C for 24 h, the diameters of the inhibition zones were determined. One hundred microliters of 0.25 μg/mL chloramphenicol was used as a control. The MICs of the pure McC variants were determined by microdilution in a sterilized 96-well microplate. The McC variants were serially diluted 2 times in 96-well microplates with LB medium. The concentrations of the McC variants ranged from 0.125 to 100 µg/mL. Each well was inoculated with 10 μL of overnight bacterial culture at a concentration of 1.0 × 10^5 CFU/mL and incubated at 37 °C for 24 h. A microplate reader was used to automatically observe changes in absorbance at 600 nm in order to monitor bacterial growth. A positive control group (including inoculated medium) and a negative control group (with medium only) were included. The MIC was determined as the lowest concentration of McC variant that inhibited bacterial growth (preventing an increase in the absorbance reading). All tests were performed in triplicate.

Yej^+rimL^− strain [2] = assay type: cell-based; conditions: HPLC-purified variants; microdilution in LB, 96-well; 0.125 to 100 µg/mL; 1.0 × 10^5 CFU/mL; 37 °C 24 h; absorbance 600 nm; triplicate
Procedure: To accurately characterize the bacteriostatic abilities of the variants, the MICs of the pure McC variants toward the McCsensitive strain Yej^+rimL^− were determined. The MICs of all variants were lower than that of wild-type McC. From smallest to largest MIC, the above five variants were in the following order: R2A, R2T, R2Q, R2S, and R2H. […] Although the diameter of the inhibitory zone of R2M was smaller than those of the above five variants, the bacteriostatic ability of R2M was second only to R2T/R2Q, and the MIC was 50 μg/mL.
as §2

[3] = Remaining amount by RP-HPLC after pepsin treatment; assay type: in vitro ADME; conditions: isolated enzyme pepsin; pepsin treated for 3 h; read-out RP-HPLC; Table S2
Procedure: (§3) To test whether the variants were tolerant to trypsin or other digestive enzymes, the amount of the remaining McC and its analogues remaining was determined by RP-HPLC after trypsin, pepsin, and chymotrypsin treated for 3 h (Table S2), and the inhibition zones of trypsin-treated variants were tested using the same method (Table 2).

[4] = Remaining amount by RP-HPLC after chymotrypsin treatment; assay type: in vitro ADME; conditions: isolated enzyme chymotrypsin; chymotrypsin treated for 3 h; read-out RP-HPLC; Table S2
Procedure: as §3

[5] = HPLC retention time according to hydrophobicity; assay type: physicochemical; conditions: chromatographic, C18 5 μm 9.4 × 250 mm; A 0.1% trichloroacetic acid, B 0.1% trichloroacetic acid with 90% acetonitrile; linear 5% B to 50% B; 1 mL/min; 35 °C; 280 nm; varies according to hydrophobicity
Procedure: To find the separation peaks of the variants, wildtype McC and blank control fermentation broth samples were tested by HPLC. The separation peaks with obvious differences (those with retention times of 11 min and 17 min) were purified and the antimicrobial activity was determined. […] Therefore, the molecular weight was further analyzed by mass spectrometry, and the separation peak at approximately 17 min was confirmed to be that of the desired purified McC. Since the mutations in this study involved only one amino acid and had few effects on the properties of the peptides, we predicted that the separation peaks of the variants should fluctuate around approximately 17 min according to their hydrophobicity. […] The purity of the purified variants was determined by HPLC to be greater than 80% (Table 3).
The lyophilized supernatants were dissolved in deionized water, filtered through 0.22 μm aqueous-phase filter membranes, and purified by high-performance liquid chromatography (HPLC, Agilent Technologies Inc., Palo Alto, CA, USA) with C18 column (5 μm 9.4 × 250 mm, Agilent Technologies Inc., Palo Alto, CA, USA). The mobile phase was composed of 0.1% (v/v) trichloroacetic acid (solvent A) and 0.1% (v/v) trichloroacetic acid with 90% (v/v) acetonitrile (solvent B). A linear gradient from 95% A/5% B to 50% A/50% B was used with a flow rate of 1 mL/min, a sample volume of 10 μL, a column temperature of 35 °C, and a detection wavelength of 280 nm. Electrospray ionization mass spectrometry (ESI-MS) was used to compare the McC variant masses with the expected masses. The relationships between the relative abundances and the mass-to-charge ratios (m/z) of the ions were determined to confirm the identities of the experimentally produced McC variants.

E. coli K88 = experiment: microbe, parasite or virus in culture; assay type: cell-based; conditions: agar diffusion; 200 μL fermentation supernatant; 1 × 10^5 CFU/mL; 4 °C 1 h then 37 °C 24 h; chloramphenicol 100 μL of 0.25 μg/mL; dash = no zone
Procedure: as §1, §2

Compound | bacteriostatic activity after trypsin treatment, Yej^+rimL^− (Yej^+rimL^− strain [1]) | Diameters of the inhibition zones, Trypsin-Untreated Group, Yej^+rimL^− (Yej^+rimL^− strain [1]) [mm] | Diameters of the inhibition zones, Trypsin-Treated Group, Yej^+rimL^− (Yej^+rimL^− strain [1]) [mm] | MIC (Yej^+rimL^− strain [2]) [µg/mL] | remaining at 3 h [3] [%] | remaining at 3 h [4] [%] | Retention Time [5] [min] | Diameters of the inhibition zones, Trypsin-Untreated Group, K88 (E. coli K88) [mm]
CSCC[C@H](NC=O)C(=O)N[C@@H](Cc1ccc(O)cc1)C(=O)N[C@H](C(=O)NCC(=O)N[C@@H](CC(N)=O)C(=O)N[C@@H](C)C(=O)N[C@@H](CC(=O)O)C(=O)NP(=O)(OCCCN)OC[C@H]1O[C@@H](n2cnc3c(N)ncnc32)[C@H](O)[C@@H]1O)[C@@H](C)O (stereo partly shown) [R2Y] (HELM PEPTIDE1{[O=C[*:2]].M.Y.T.G.N.A.[NCCCOP(=O)(NC(=O)[C@H](CC(=O)O)N[*:1])OC[C@H]1O[C@@H](n2cnc3c(N)ncnc32)[C@H](O)[C@@H]1O]}$$$$V2.0) | exhibited antibacterial effects | 18.87 | 14.93 | >100 | 85.22 ± 0.72 | 45.4 ± 1.18 | 18.591 | –
CSCC[C@H](NC=O)C(=O)N[C@H](C(=O)N[C@H](C(=O)NCC(=O)N[C@@H](CC(N)=O)C(=O)N[C@@H](C)C(=O)N[C@@H](CC(=O)O)C(=O)NP(=O)(OCCCN)OC[C@H]1O[C@@H](n2cnc3c(N)ncnc32)[C@H](O)[C@@H]1O)[C@@H](C)O)C(C)C (stereo partly shown) [R2V] (HELM PEPTIDE1{[O=C[*:2]].M.V.T.G.N.A.[NCCCOP(=O)(NC(=O)[C@H](CC(=O)O)N[*:1])OC[C@H]1O[C@@H](n2cnc3c(N)ncnc32)[C@H](O)[C@@H]1O]}$$$$V2.0) | exhibited antibacterial effects | 21.34 | 14.62 | 50 (≈ 44.6 µM) | 79 ± 1.24 | 39.1 ± 1.05 | 18.151 | –
CSCC[C@H](NC=O)C(=O)N[C@@H](CC(C)C)C(=O)N[C@H](C(=O)NCC(=O)N[C@@H](CC(N)=O)C(=O)N[C@@H](C)C(=O)N[C@@H](CC(=O)O)C(=O)NP(=O)(OCCCN)OC[C@H]1O[C@@H](n2cnc3c(N)ncnc32)[C@H](O)[C@@H]1O)[C@@H](C)O (stereo partly shown) [R2L] (HELM PEPTIDE1{[O=C[*:2]].M.L.T.G.N.A.[NCCCOP(=O)(NC(=O)[C@H](CC(=O)O)N[*:1])OC[C@H]1O[C@@H](n2cnc3c(N)ncnc32)[C@H](O)[C@@H]1O]}$$$$V2.0) | – | 14.40 | 0 | >100 | 79.25 ± 0.62 | 39.2 ± 0.75 | 19.425 | –
CSCC[C@H](NC=O)C(=O)N[C@@H](Cc1ccccc1)C(=O)N[C@H](C(=O)NCC(=O)N[C@@H](CC(N)=O)C(=O)N[C@@H](C)C(=O)N[C@@H](CC(=O)O)C(=O)NP(=O)(OCCCN)OC[C@H]1O[C@@H](n2cnc3c(N)ncnc32)[C@H](O)[C@@H]1O)[C@@H](C)O (stereo partly shown) [R2F] (HELM PEPTIDE1{[O=C[*:2]].M.F.T.G.N.A.[NCCCOP(=O)(NC(=O)[C@H](CC(=O)O)N[*:1])OC[C@H]1O[C@@H](n2cnc3c(N)ncnc32)[C@H](O)[C@@H]1O]}$$$$V2.0) | – | 13.05 | 10.95 | – | 82.3 ± 0.94 | 41.1 ± 0.98 | – | 14.34
